Results taken from ChEMBL document CHEMBL1811917 (J Med Chem, 2011).

What was measured:
Arginase [1] = target: T1, Arginase (Plasmodium falciparum, UniProt Q8I384); assay: Binding affinity to Plasmodium falciparum arginase
T1 sequence (Q8I384 whole entry): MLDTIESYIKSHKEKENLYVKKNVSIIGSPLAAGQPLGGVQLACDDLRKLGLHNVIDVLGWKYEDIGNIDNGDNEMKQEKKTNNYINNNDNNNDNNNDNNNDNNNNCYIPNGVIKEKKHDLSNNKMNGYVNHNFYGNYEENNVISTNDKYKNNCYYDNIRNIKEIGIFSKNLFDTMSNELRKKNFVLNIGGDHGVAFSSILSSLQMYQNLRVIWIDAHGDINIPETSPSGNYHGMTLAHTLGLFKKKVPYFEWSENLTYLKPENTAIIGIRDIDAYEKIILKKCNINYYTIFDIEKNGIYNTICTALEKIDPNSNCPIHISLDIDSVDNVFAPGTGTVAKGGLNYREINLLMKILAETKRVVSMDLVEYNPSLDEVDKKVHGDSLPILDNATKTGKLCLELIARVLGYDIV

[2] = target: T2, Arginase-2, mitochondrial (Homo sapiens, UniProt P78540); assay: Binding affinity to human arginase 2
T2 sequence (P78540 whole entry): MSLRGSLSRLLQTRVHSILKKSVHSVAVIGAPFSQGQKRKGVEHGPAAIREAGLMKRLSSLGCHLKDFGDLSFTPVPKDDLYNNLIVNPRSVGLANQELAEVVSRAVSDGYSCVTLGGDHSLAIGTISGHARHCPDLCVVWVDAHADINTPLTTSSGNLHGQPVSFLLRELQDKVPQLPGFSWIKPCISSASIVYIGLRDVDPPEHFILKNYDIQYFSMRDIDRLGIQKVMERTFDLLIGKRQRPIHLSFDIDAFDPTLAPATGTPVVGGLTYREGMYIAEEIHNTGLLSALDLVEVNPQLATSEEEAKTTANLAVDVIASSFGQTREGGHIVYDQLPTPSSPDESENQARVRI

Arginase-1 [3] = target: T3, Arginase-1 (Homo sapiens, UniProt P05089); assay: Binding affinity to human arginase 1
T3 sequence (P05089 whole entry): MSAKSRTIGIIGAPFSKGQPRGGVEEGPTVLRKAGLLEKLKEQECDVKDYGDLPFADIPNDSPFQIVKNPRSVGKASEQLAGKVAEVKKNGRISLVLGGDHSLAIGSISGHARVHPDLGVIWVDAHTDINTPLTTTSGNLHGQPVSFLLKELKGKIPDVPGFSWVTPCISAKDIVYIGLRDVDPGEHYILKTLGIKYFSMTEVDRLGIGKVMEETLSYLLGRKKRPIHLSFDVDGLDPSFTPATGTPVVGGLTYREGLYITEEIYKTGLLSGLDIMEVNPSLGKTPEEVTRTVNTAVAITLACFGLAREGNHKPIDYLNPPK

Arginase [4] = target: T1, Arginase; assay: Inhibition of Plasmodium falciparum arginase using L-arginine as substrate by colorimetric assay
Arginase-1 [5] = target: T3, Arginase-1; assay: Binding affinity to human arginase 1 using L-arginine as substrate by surface plasmon resonance assay

Row | Structure (SMILES) | Kd (Arginase [1]) | Ki [2] | Kd (Arginase-1 [3]) | Ki (Arginase [4]) | Kd (Arginase-1 [5])
1 | N[C@@H](CCCCB(O)O)C(=O)O | 11 µM | 0.0085 µM | 0.005 µM | 10 µM | 0.018 µM
2 | CC(N)(CCCCB(O)O)C(=O)O (racemic) | – | – | – | 260 µM | 0.88 µM
3 | NC(CCCCB(O)O)(C(=O)O)C(F)F (racemic) | – | – | – | – | 34 µM
